Source: patent publication US20260207615A1, “FLUOROPYRIDOPYRIMIDINE AND FLUOROQUINAZOLINE DERIVATIES AND METHODS OF USE THEREOF” (Frontier Medicines Corporation, priority 2022, published 2026)
pIC50: −log10 of the molar value.

molecular target: T1, KRAS G12C and cRAF interaction (Homo sapiens, UniProt P01116, C118S/C51S/C80L/G12C); assay: Inhibition of KRAS G12C and cRAF binding (AlphaScreen); assay type: biochemical; details: KRAS G12C (Cys-light, aa 1-169) preloaded with GMPPNP, cRaf RBD (aa 50-131), 2 hours incubation
T1 construct: truncated version comprising amino acids 1-169
Method: The AlphaScreen technology was used to determine IC50s for compound inhibition of KRAS G12C (present as the Cys-light (C51S, C80L and C118S), truncated version comprising amino acids 1-169) and cRAF interaction. Compounds were diluted in 100% DMSO and each compound concentration was spotted at 200 nl/well onto low volume, white 384 well plates. The KRAS G12C contained a biotin-AviTag and the cRaf, as Ras-binding domain (amino acids 50-131, RBD), was GST-tagged. KRAS G12C was preloaded with the GTP analogue Guanosine 5′-[β,γ-imido]triphosphate (GMPPNP). The KRAS G12C was diluted in 25 mM Hepes, pH 7.4, 150 mM NaCl, 5 mM MgCl2, 0.01% TritonX-100 and 10 μM GMPPNP and added at 10 μl/well to compound-spotted plates resulting in a DMSO concentration of 2%. Plates were incubated for 2 hours. A mixture of RBD and the AlphaScreen streptavidin donor and glutathione acceptor beads diluted in 25 mM Hepes, pH 7.4, 150 mM NaCl, 5 mM MgCl2, 0.01% TritonX-100 and 2% DMSO was then added at 10 μl/well and incubated for 60-90 minutes before the samples were read for emission at 570 nm after excitation of the donor beads at 680 nm. All incubations were performed at room temperature. The final top compound concentration was 50 μM with 1:3 titrations for 10-point dose response curves. Final assay conditions were 0.5 nM KRAS G12C, 0.75 nM RBD and 5 μg/ml each of AlphaScreen donor and acceptor beads. IC50S were determined using nonlinear regression fit of [inhibitor] vs. response (4 parameters).
A counter assay was also set up to rule out inhibitors of the AlphaScreen technology itself. Compound plates were incubated for 2 hours as above with buffer only.
The AlphaScreen beads were added as above except biotin-AviTag-GST was substituted for the RBD. Samples were read and analyzed as above.

T1 sequence (P01116 1-169 isoform P01116-2 G12C/C51S/C80L/C118S): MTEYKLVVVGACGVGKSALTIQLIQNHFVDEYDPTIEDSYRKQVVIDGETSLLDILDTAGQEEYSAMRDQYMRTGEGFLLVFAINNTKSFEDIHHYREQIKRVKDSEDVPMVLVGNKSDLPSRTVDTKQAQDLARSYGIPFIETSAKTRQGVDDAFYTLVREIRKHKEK

pIC50 | Structure (SMILES)
> 8.00 | O=C(/C=C/CN1[C@@H]2CC[C@H]1COC2)N1CCN(c2nc(OC[C@@]34CCCN3C[C@H](F)C4)nc3c(F)c(-c4cccc(Cl)c4C4CC4)ncc23)CC12COC2 [Example 24, (E)-4-((1R,5S)-3-oxa-8-azabicyclo[3.2.1]octan-8-yl)-1-(8-(7-(3-chloro-2-cyclopropylphenyl)-8-fluoro-2-(((2R,7aS)-2-fluorotetrahydro-1H-pyrrolizin-7a(5H)-yl)methoxy)pyrido[4,3-d]pyrimidin-4-yl)-2-oxa-5,8-diazaspiro[3.5]nonan-5-yl) but-2-en-1-one]
6.30 to 7.00 | CC(C#CC(=O)N1CCN(c2nc(OC[C@@]34CCCN3C[C@H](F)C4)nc3c(F)c(-c4cccc5cccc(Cl)c45)ncc23)CC12COC2)N1CCOCC1 (stereo partly drawn) [Example 40, 1-(8-(7-(8-chloronaphthalen-1-yl)-8-fluoro-2-(((2R,7aS)-2-fluorotetrahydro-1H-pyrrolizin-7a(5H)-yl)methoxy)pyrido[4,3-d]pyrimidin-4-yl)-2-oxa-5,8-diazaspiro[3.5]nonan-5-yl)-4-morpholinopent-2-yn-1-one]
7.00 to 8.00 | O=C(/C=C/CN1CC2CCC(C1)O2)N1CCN(c2nc(OC[C@@]34CCCN3C[C@H](F)C4)nc3c(F)c(-c4cccc5cccc(Cl)c45)ncc23)CC12COC2 [Example 15, (E)-4-(8-oxa-3-azabicyclo[3.2.1]octan-3-yl)-1-(8-(7-(8-chloronaphthalen-1-yl)-8-fluoro-2-(((2R,7aS)-2-fluorotetrahydro-1H-pyrrolizin-7a(5H)-yl)methoxy)pyrido[4,3-d]pyrimidin-4-yl)-2-oxa-5,8-diazaspiro[3.5]nonan-5-yl) but-2-en-1-one]
≤ 6.30 | C=CC(=O)N1CCN(c2nc(OC[C@@]34CCCN3C[C@H](F)C4)nc3c(F)c(-c4c(C)cc(F)c5[nH]ncc45)ncc23)CC12COC2 [Example 52, 1-(8-(8-fluoro-7-(7-fluoro-5-methyl-1H-indazol-4-yl)-2-(((2R,7aS)-2-fluorotetrahydro-1H-pyrrolizin-7a(5H)-yl)methoxy)pyrido[4,3-d]pyrimidin-4-yl)-2-oxa-5,8-diazaspiro[3.5]nonan-5-yl) prop-2-en-1-one]
6.30 to 7.00 | Cc1cc(/C=C/C(=O)N2CCN(c3nc(OC[C@@]45CCCN4C[C@H](F)C5)nc4c(F)c(-c5cccc(Cl)c5C(F)(F)F)ncc34)CC23COC3)nc(C)n1 [Example 69]
7.00 to 8.00 | O=C(/C=C/CN1CC2CC(C1)O2)N1CCN(c2nc(OC[C@@]34CCCN3C[C@H](F)C4)nc3c(F)c(-c4cccc5cccc(Cl)c45)ncc23)CC12COC2 [Example 14, (E)-4-(6-oxa-3-azabicyclo[3.1.1]heptan-3-yl)-1-(8-(7-(8-chloronaphthalen-1-yl)-8-fluoro-2-(((2R,7aS)-2-fluorotetrahydro-1H-pyrrolizin-7a(5H)-yl)methoxy)pyrido[4,3-d]pyrimidin-4-yl)-2-oxa-5,8-diazaspiro[3.5]nonan-5-yl) but-2-en-1-one]
≤ 6.30 | Cc1nccc(/C=C(\F)C(=O)N2CCN(c3nc(OC[C@@]45CCCN4C[C@H](F)C5)nc4c(F)c(-c5cccc6cccc(Cl)c56)ncc34)CC23COC3)n1 [Example 61]
> 8.00 | C=CC(=O)N1CCN(c2nc(OC[C@@]34CCCN3C[C@H](F)C4)nc3c(F)c(-c4cc(O)cc(Cl)c4C4CC4)c(Cl)cc23)CC12COC2 [Example 78, 1-(8-(6-chloro-7-(3-chloro-2-cyclopropyl-5-hydroxyphenyl)-8-fluoro-2-(((2R,7aS)-2-fluorotetrahydro-1H-pyrrolizin-7a(5H)-yl)methoxy)quinazolin-4-yl)-2-oxa-5,8-diazaspiro[3.5]nonan-5-yl) prop-2-en-1-one]
≤ 6.30 | C=CC(=O)N1CCN(c2nc(OC[C@@]34CCCN3C[C@H](F)C4)nc3c(F)c(-c4cccc5cccc(Cl)c45)ncc23)C[C@]12CCOC2 [Example 89]
6.30 to 7.00 | C=CC(=O)N1CCN(c2nc(OC[C@@]34CCCN3C[C@H](F)C4)nc3c(F)c(-c4cccc5cccc(Cl)c45)ncc23)CC12CCOC2 (some centres unmarked) [Example 84]
7.00 to 8.00 | C=CC(=O)N1CCN(c2nc(OC[C@@]34CCCN3C[C@H](F)C4)nc3c(F)c(-c4cccc(Cl)c4C4CC4)ncc23)CC12COC2 [Example 38, 1-(8-(7-(3-chloro-2-cyclopropylphenyl)-8-fluoro-2-(((2R,7aS)-2-fluorotetrahydro-1H-pyrrolizin-7a(5H)-yl)methoxy)pyrido[4,3-d]pyrimidin-4-yl)-2-oxa-5,8-diazaspiro[3.5]nonan-5-yl) prop-2-en-1-one]
> 8.00 | O=C(/C=C/CN1C[C@H]2C[C@@H]1CO2)N1CCN(c2nc(OC[C@@]34CCCN3C[C@H](F)C4)nc3c(F)c(-c4cccc5ccc(F)c(Cl)c45)ncc23)CC12COC2 [Example 9, (E)-4-((1R,4R)-2-oxa-5-azabicyclo[2.2.1]heptan-5-yl)-1-(8-(7-(8-chloro-7-fluoronaphthalen-1-yl)-8-fluoro-2-(((2R,7aS)-2-fluorotetrahydro-1H-pyrrolizin-7a(5H)-yl)methoxy)pyrido[4,3-d]pyrimidin-4-yl)-2-oxa-5,8-diazaspiro[3.5]nonan-5-yl) but-2-en-1-one]
7.00 to 8.00 | CN(C/C=C/C(=O)N1CCN(c2nc(OC[C@@]34CCCN3C[C@H](F)C4)nc3c(F)c(-c4cccc5cccc(Cl)c45)ncc23)CC12COC2)CC1COC1 [Example 3, (E)-1-(8-(7-(8-chloronaphthalen-1-yl)-8-fluoro-2-(((2R,7aS)-2-fluorotetrahydro-1H-pyrrolizin-7a(5H)-yl)methoxy)pyrido[4,3-d]pyrimidin-4-yl)-2-oxa-5,8-diazaspiro[3.5]nonan-5-yl)-4-(methyl(oxetan-3-ylmethyl)amino)but-2-en-1-one]
≤ 6.30 | C=CC(=O)N1CCN(c2nc(OC[C@@]34CCCN3C[C@H](F)C4)nc3c(F)c(-c4ccc(F)c5sc(N)nc45)c(Cl)cc23)C[C@]12CCOC2 [Example 87]
> 8.00 | O=C(/C=C/CN1[C@@H]2CC[C@H]1COC2)N1CCN(c2nc(OCC34CCCN3CCC4)nc3c(F)c(-c4cccc5cccc(Cl)c45)ncc23)CC12COC2 [Example 36, (E)-4-((1R,5S)-3-oxa-8-azabicyclo[3.2.1]octan-8-yl)-1-(8-(7-(8-chloronaphthalen-1-yl)-8-fluoro-2-((tetrahydro-1H-pyrrolizin-7a(5H)-yl)methoxy)pyrido[4,3-d]pyrimidin-4-yl)-2-oxa-5,8-diazaspiro[3.5]nonan-5-yl) but-2-en-1-one]
> 8.00 | Cc1cc(/C=C(\F)C(=O)N2CCN(c3nc(OC[C@@]45CCCN4C[C@H](F)C5)nc4c(F)c(-c5cccc6ccc(F)c(F)c56)ncc34)CC23COC3)nc(C)n1 [Example 59, (Z)-1-(8-(7-(7,8-difluoronaphthalen-1-yl)-8-fluoro-2-(((2R,7aS)-2-fluorotetrahydro-1H-pyrrolizin-7a(5H)-yl)methoxy)pyrido[4,3-d]pyrimidin-4-yl)-2-oxa-5,8-diazaspiro[3.5]nonan-5-yl)-3-(2,6-dimethylpyrimidin-4-yl)-2-fluoroprop-2-en-1-one]
> 8.00 | Cc1nccc(/C=C/C(=O)N2CCN(c3nc(OC[C@@]45CCCN4C[C@H](F)C5)nc4c(F)c(-c5cc(O)cc(Cl)c5C5CC5)ncc34)CC23COC3)n1 [Example 41, (E)-1-(8-(7-(3-chloro-2-cyclopropyl-5-hydroxyphenyl)-8-fluoro-2-(((2R,7aS)-2-fluorotetrahydro-1H-pyrrolizin-7a(5H)-yl)methoxy)pyrido[4,3-d]pyrimidin-4-yl)-2-oxa-5,8-diazaspiro[3.5]nonan-5-yl)-3-(2-methylpyrimidin-4-yl) prop-2-en-1-one]
